Columns and labels:
Format in all cases: cell-based
NCI-H28 cells = assay: Cell growth inhibition test (CellTiter-Glo), NCI-H28; conditions: Homo sapiens, NCI-H28 cell line
Procedure: (§1) The cell growth for the compounds prepared in Examples was measured by CellTiter-Glo® Luminescednt Cell Viability (Promega, Catalog #G7571) method using NCI-H226 (addexbio), NCI-H28 (Korea Cell Line Bank) cell lines. This evaluation method is a method in which when luciferase enzyme is activated by ATP flowing out from living cells, it reacts with a luciferin substrate, and the enzyme activity at this time is measured to confirm cell viability.
(§2) Specifically, NCI-H226, and NCI-H28 cells were prepared in 100 μL of cell culture medium (RPMI medium, 10% FBS, 1% P/S, 4.5 g/L D-Glucose, 2.383 g/L HEPES Buffer, L-Glutamine, 1.5 g/L Sodium Bicarbonate, 110 mg/L Sodium pyruvate) in a white clear bottom 96-well microplate. The prepared plate was incubated in a 5% CO2 incubator at 37° C. for 24 hours, and then the previously prepared compounds of Examples were finally treated at concentrations of 0.0005, 0.005, 0.05, 0.5 and 5 μM, which was repeated three times for all treatment solutions.
(§3) The plates treated with the compounds of Examples were incubated in a 5% CO2 incubator at 37° C. 100 μL/well of the substrate aqueous solution containing luciferin was added to a white clear-bottom 96 well microplate, thereby initiating an enzyme reaction. The reaction was performed at room temperature in the dark for 10 minutes, and the luminescence was measured using a Flexstation3 multi-mode microplate reader. In accordance with the instructions for the CellTiter-Glo™ Luminescednt Cell Viability, the luciferase enzyme activity, which represents the amount of ATP, was measured by a chemiluminescence method, and the inhibitory activity of the compounds according to the present disclosure was calculated. The results of each compound were analyzed using Microsoft Excel, and the IC50 values were calculated using GraphPad Prism software.

NCI-H226 cells = assay: Cell growth inhibition test (CellTiter-Glo), NCI-H226; conditions: Homo sapiens, NCI-H226 cell line
Procedure: as §1, §2, §3

[1] = tested on: transcription factor TEAD; assay: Activity inhibition test of transcription factor TEAD (ONE-Glo luciferase assay, Hippo Pathway TEAD reporter-MCF7 cell line); conditions: Homo sapiens; TEAD Reporter-MCF7 cells, 24 hours treatment, luciferase luminescence
Procedure: The transcription factor TEAD activity of the compounds prepared in Examples was measured by the ONE-Glo™ Luciferase assay (Promega, Catalog #E6110) method using the Hippo Pathway TEAD reporter-MCF7 recombinant cell line (BPS Bioscience, Catalog #60618).
Specifically, the TEAD Reporter-MCF7 cell line contains the firefly luciferase gene whose expression is regulated under the control of TEAD response elements in the MCF7, which is a human breast cancer cell line. In the cell line, a non-phosphorylated YAP/TAZ exists in the nucleus in a non-stressed condition, which continuously induces expression of the luciferase reporter.
TEAD Reporter-MCF7 cells were prepared in 100 μL of cell culture medium (MEM medium, 10% FBS, 1% P/S, 400 μg/mL Geneticin, 1% […], 1 mM NA pyruvate, 10 μg/mL Insulin) in a white clear bottom 96-well microplate. The prepared plate was incubated in a 5% CO2 incubator at 37° C. for 24 hours, and then the previously prepared compounds of Examples were finally treated at concentrations of 0.0005, 0.005, 0.05, 0.5 and 5 μM, which were repeated three times for all treatment solutions. The plates treated with the compounds of Examples were incubated in a 5% CO2 incubator at 37° C. for 24 hours. 100 μL/well of the substrate aqueous solution containing luciferin was added to a white clear-bottom 96 well microplate, thereby initiating an enzyme reaction. The reaction was performed at room temperature for 5 minutes, and the luminescence (integration time 1000 ms) was measured using a Flexstation3 multi-mode microplate reader. In accordance with the instructions for the ONE-Glo™ Luciferase Assay, the luciferase enzyme activity, which represents the activity of the transcription factor TEAD, was measured by a chemiluminescence method, and the inhibitory activity of the compound according to the present disclosure was calculated. The results of each compound were analyzed using Microsoft Excel, and the IC50 values were calculated by GraphPad Prism software.

| IC50 (NCI-H28 cells) [nM] | IC50 (NCI-H226 cells) [nM] | IC50 [1] [nM] | Compound |
| --- | --- | --- | --- |
| > 5000 | 21.9 | 36 | Cn1cnc(-c2cc(C(=O)O)cc3cc(-c4ccc(Cl)c(F)c4)[nH]c23)c1 [Example 39, 2-(4-chloro-3-fluorophenyl)-7-(1-methyl-1H-imidazol-4-yl)-1H-indole-5-carboxylic acid] |
| 2800 | 22.5 | 79 | C=CC(=O)Nc1cc(-c2cn(C)cn2)c2[nH]c(-c3ccc(Cl)cc3F)cc2c1 [Example 12, N-(2-(4-chloro-2-fluorophenyl)-7-(1-methyl-1H-imidazol-4-yl)-1H-indol-5-yl)acrylamide] |
| 2470 | 20 | 60 | C=CC(=O)Nc1cc(-c2cn(C)cn2)c2[nH]c(-c3cccc(Cl)c3)cc2c1 [Example 10, N-(2-(3-chlorophenyl)-7-(1-methyl-1H-imidazol-4-yl)-1H-indol-5-yl)acrylamide] |
| > 5000 | 15.4 | 27 | C=CC(=O)Nc1cc(-c2cn(CC)cn2)c2[nH]c(-c3cc(F)c(F)c(F)c3)cc2c1 [Example 50, N-(7-(1-ethyl-1H-imidazol-4-yl)-2-(3,4,5-trifluorophenyl)-1H-indol-5-yl)acrylamide] |

Reference: patent US20260242360A1, “Novel Compound, and Pharmaceutical Composition for Prevention or Treatment of Cancer or Tumors Comprising Same” (Daewoong Pharmaceutical Co., Ltd., priority 2023, published 2026)
